Literature values in US20190275270A1, “SYSTEM AND METHOD FOR ARRESTING DEBILITATING MIGRAINE EVENTS” (priority 2018, published 2019).

Legend:
CB1 [1] = target: T1, CB1 (Homo sapiens, UniProt P21554)
CB2 [2] = target: T2, CB2 (Homo sapiens, UniProt P34972)
CB2 [3] = target: T2, CB2; remark: listed apart in the source
CB1 [4] = target: T1, CB1; remark: listed apart in the source
[5] = system: nitric oxide (NO) production; conditions: read-out: inhibits NO production, IC50
migraine incidences = conditions: used in a preventative context

T1 sequence (P21554 whole entry, species assumed): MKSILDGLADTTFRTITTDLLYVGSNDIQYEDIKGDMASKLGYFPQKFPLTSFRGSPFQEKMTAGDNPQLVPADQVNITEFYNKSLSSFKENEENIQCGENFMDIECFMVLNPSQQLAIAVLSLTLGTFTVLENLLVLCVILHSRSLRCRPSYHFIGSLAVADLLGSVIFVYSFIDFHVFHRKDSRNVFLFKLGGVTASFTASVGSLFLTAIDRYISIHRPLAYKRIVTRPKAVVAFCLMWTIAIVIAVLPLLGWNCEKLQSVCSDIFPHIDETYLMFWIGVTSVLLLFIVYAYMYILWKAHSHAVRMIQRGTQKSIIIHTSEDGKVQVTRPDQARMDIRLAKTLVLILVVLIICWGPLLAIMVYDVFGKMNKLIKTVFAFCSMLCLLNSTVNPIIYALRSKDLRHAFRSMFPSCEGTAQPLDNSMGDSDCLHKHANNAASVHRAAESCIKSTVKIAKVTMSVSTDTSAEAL
T2 sequence (P34972 whole entry, species assumed): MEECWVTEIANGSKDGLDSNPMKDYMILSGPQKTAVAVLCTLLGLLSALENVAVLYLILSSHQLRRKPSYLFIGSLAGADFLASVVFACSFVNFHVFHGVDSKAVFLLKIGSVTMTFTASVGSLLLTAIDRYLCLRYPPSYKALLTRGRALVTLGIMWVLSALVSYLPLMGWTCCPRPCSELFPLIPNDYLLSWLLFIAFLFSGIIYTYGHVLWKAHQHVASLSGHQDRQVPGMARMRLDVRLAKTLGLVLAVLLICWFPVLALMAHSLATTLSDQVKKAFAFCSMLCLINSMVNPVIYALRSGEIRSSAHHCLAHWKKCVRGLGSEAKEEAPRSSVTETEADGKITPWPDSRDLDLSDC

Molecule	binding to CB1 (CB1 [1])	binding to CB2 (CB2 [2])	activity at CB2 (CB2 [3])	further results
CCCCCCC[C@@H](C/C=C/CCC(=O)N(C)C/C(=C/Cl)C/C(=C\C(=O)N1CC(O)CC1=O)OC)OC (stereo partly drawn) [Malyngamide B]	moderate potencies	moderate potencies	–	–
C=CCc1ccc(O)c(-c2ccc(O)c(CC=C)c2)c1 [honokiol]	–	–	antagonistic properties	activity at CB1 (CB1 [4]): full agonistic activity
C=CCc1ccc(O)c(-c2cc(CC=C)ccc2O)c1 [Magnolol]	–	–	partial agonist	IC50 [5]: ~6.2 µM
caryophyllene	binds	binds	–	–
C=C(C)[C@@H]1CCC(C)=C[C@H]1c1c(O)cc(CCCCC)cc1O [CBD, cannabidiol]	–	–	–	cut in migraine incidences (migraine incidences): more than 50%
